Data as given in paper PMC8101618, “Comparable Initial Engagement of Intracellular Signaling Pathways by Parathyroid Hormone Receptor Ligands Teriparatide, Abaloparatide, and Long‐Acting PTH” (JBMR Plus, 2021).

What was measured:
[1] = system: SIK; settings: cultured osteocytes and in vivo; cited from earlier work
Text: Although it is well‐established that PTH‐mediated increases in bone formation require actions in osteocytes,^( ^19 , ^23 ^) the signaling events downstream of the PTH1R in osteocytes have remained elusive. We recently described a new signaling pathway that relays information from the PTH1R to the nucleus in osteocytes.^( ^24 ^) A crucial step in this cascade involves cyclic AMP (cAMP)‐mediated inhibition of salt inducible kinase 2 (SIK2). Importantly, PTH1R‐induced SIK2 phosphorylation/inactivation occurs rapidly (within 1 min of receptor engagement by hPTH (1‐34)) and then diminishes.^( ^24 ^ ...

[2] = system: PTH1R; settings: cited from earlier work
Text: Recruitment of the intracellular scaffolding proteins β‐arrrestin1/2 is a well‐characterized step that occurs following activation and GRK‐dependent phosphorylation in multiple G‐Protein‐Coupled Receptors (GPCRs) signaling systems.^( ^39 ^) β‐arrestin recruitment is traditionally thought to lead to signal termination due to receptor internalization.

[3] = system: human PTH1R; assay: β-arrestin2-YFP clustering in GBR-24 cells; format: cell-based; settings: TMR-labeled ligands 30nM, 15 min, room temperature; β-arrestin2-YFP HEK293 cells (GBR-24) transiently transfected with human PTH1R
Protocol: Recruitment of β‐arrestin was assessed in HEK293 cells stably transfected to express β‐arrestin2‐YFP^( ^36 ^) and glosensor (GBR‐24 cells)^( ^34 ^) and transiently transfected to express the hPTH1R or mDsRed‐hPTH1R in which the monomeric Discosoma sp. red fluorescent protein is inserted in the E2 region of the receptor's extracellular domain. Cells were treated with each PTH1R ligand and imaged by fluorescent microscopy as described above (see 2.4 Internalization). The quantification of colocalizations between β‐arrestin2YFP and TMR‐ligands were performed by ImageJ software (NIH, Bethesda, MD, USA; https://imagej.nih.gov/ij/) using Just Another Colocalization Plugin (JACoP) and indicated as cytofluorograms.
Recruitment of the intracellular scaffolding proteins β‐arrrestin1/2 is a well‐characterized step that occurs following activation and GRK‐dependent phosphorylation in multiple G‐Protein‐Coupled Receptors (GPCRs) signaling systems.^( ^39 ^) β‐arrestin recruitment is traditionally thought to lead to signal termination due to receptor internalization. […] For this, HEK293 cells stably expressing YFP‐tagged β‐arrestin2 (GBR‐24 cells) were transiently transfected with human PTH1R cDNA, then treated with TMR‐labeled PTH ligands at 30nM for 15 min at room temperature. Thereafter, cells were rinsed, fixed, and viewed by epifluorescent microscopy.

[4] = system: human PTH1R-pHluorin2-GFP; assay: internalization using GFP^pHs fluorescence (GPG-10 cells); format: cell-based; settings: continuous treatment 90 min, range of doses; ratio 485/405 nm excitation, emission 535 nm; pH 7.4; n = 6 independent experiments
Protocol: Receptor internalization was assessed in the HEK293 cell line stably transfected with human PTH1R‐pHluorin2‐GFP (GPG‐10 cells).^( ^33 , ^34 ^) Confluent monolayers of cells in black‐walled, 96‐well plates were incubated in HBSS with BSA (0.1% wt/vol) and HEPES buffer (pH 7.4, 10mM). Peptides were added and wells were analyzed by recording fluorescence readouts with excitation at 485 or 405 nm and emission at 535 nm. Data were analyzed as a ratio of fluorescence intensity following excitation at 485/405 nm over the course of 90 min, and the area under the curve (AUC) values for each time course were plotted as a function of ligand concentration.
A complementary approach was used to visualize ligand‐dependent colocalization of PTH1R and β‐arrestin2. For this, β‐arrestin2‐YFP–expressing cells were transiently transduced with a plasmid encoding a dsRed‐tagged version of human PTH1R. […] In that study, multiple ligand concentrations were used and the responses were assessed at the peak response time, which was generally ~5 min after ligand addition.^( ^42 ^) To explore differences in receptor internalization in more detail, we used constructs where the PTH receptor is fused to a pH‐sensitive GFP variant (GFP^pHs) which changes its fluorescent signal in acidic endosomes. […]

[5] = system: HDAC4 S246, HDAC5 S259; assay: HDAC4/5 phosphorylation immunoblotting in Ocy454 cells; format: cell-based, murine; settings: 10nM, 1 hour (Supplementary Fig. S1)
Protocol: For immunoblotting, cells were prepared as described.^( ^37 ^) Whole cell lysates were prepared using TNT (Tris‐NaCl‐Tween buffer, 20mM Tris‐HCl pH 8, 200mM NaCl, 0.5% Triton X‐100 containing protease inhibitor [PI], 1mM NaF, 1mM dithiothreitol [DTT], 1mM vanadate). Adherent cells were washed with ice cold PBS, then scraped into TNT buffer on ice. Material was then transferred into Eppendorf tubes kept on ice, vortexed at top speed for 30 s, then centrifuged at 14,000g for 6 min at 4°C. For immunoblotting, lysates or immunoprecipitates were separated by SDS‐PAGE and proteins were transferred to nitrocellulose. […] The next day, membranes were washed, incubated with appropriate horseradish peroxidase (HRP)‐coupled secondary antibodies, and signals were detected with ECL Western Blotting Substrate (Pierce, Rockford, IL, USA), ECL Plus Western Blotting Substrate (Pierce), or SuperSignal West Femto Maximum Sensitivity Substrate (Thermo Scientific, Waltham, MA, USA). […] Quantification was performed using ImageJ.
In cells, SIKs are constitutively active kinases due to upstream LKB1 activation loop phosphorylation,^( ^45 ^) and therefore constitutively phosphorylate their substrates. […] We assessed the effects of different PTH ligands on class IIa HDAC and CRTC phosphorylation at well‐documented SIK phosphorylation sites: HDAC4 S246, HDAC5 S259, and CRTC2 S275. […]

Compound | PTH-mimicking action [1] | intracellular signaling or PTH1R internalization [2] | β-arrestin2 clustering/recruitment [3] | PTH1R internalization (AUC of GFP^pHs fluorescence ratio) [4] | SIK substrate phosphorylation and gene expression changes [5]
COc1ccc(N2C(=O)N(c3c(C)cccc3Cl)Cc3cnc(Nc4ccc(C5CCN(C)CC5)cc4OC)nc32)nc1 [YKL‐05‐099] | mimic PTH action in cultured osteocytes and in vivo |  |  |  | 
LNleHQLdWKWIQDARRRAWLHKLIAEIHTAEI.NH2 [PTH (7‐36), N‐truncated LA‐PTH analog used as a negative control] |  | does not induce intracellular signaling or PTH1R internalization | fails to stimulate β‐arrestin2 recruitment | internalization‐deficient | completely inactive
